Results on 23 compounds are retold here after PubChem BioAssay AID330 (DTP/NCI, 2004).

Structures are written as SMILES. Values joined by “and” are separate entries in the source; they are usually repeats but may differ in a detail not shown here. Equal entries are not always repeated. Toxic doses and inconclusive results are not listed.

The assay relates to P388 leukemia ip, CD2F1 mice, survival T/C. The assay can be described thus: NCI In Vivo Anticancer Drug Screen. Data for tumor model P388 Leukemia (intraperitoneal) in CD2F1 (CDF1) mice. Particulars: endpoint: median survival time, higher = longer survival. Summed up:
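Mice carrying the transplanted tumor received test compound or vehicle. Survival was recorded in each group, and the value is the treated-group measurement divided by that of the vehicle-treated control group.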

The mark [1] stands for this setting: dose: 100.0 mg/kg/injection, schedule: Q04DX002 (ip), vehicle: saline with Tween-80.
[2] abbreviates: dose: 200.0 mg/kg/injection, schedule: Q04DX002 (ip), vehicle: saline with Tween-80.
[3] abbreviates: dose: 400.0 mg/kg/injection, schedule: Q04DX002 (ip), vehicle: saline with Tween-80.
[4] abbreviates: dose: 50.0 mg/kg/injection, schedule: Q01DX009 (ip), vehicle: Klucel (hydroxypropylcellulose) (HPC).
[5] abbreviates: dose: 100.0 mg/kg/injection, schedule: Q01DX009 (ip), vehicle: Klucel (hydroxypropylcellulose) (HPC).
Where [6] appears, read: dose: 200.0 mg/kg/injection, schedule: Q01DX009 (ip), vehicle: Klucel (hydroxypropylcellulose) (HPC).
The mark [7] stands for this setting: dose: 25.0 mg/kg/injection, schedule: Q01DX005 (ip), vehicle: Klucel (hydroxypropylcellulose) (HPC).
[8] abbreviates: dose: 50.0 mg/kg/injection, schedule: Q01DX005 (ip), vehicle: Klucel (hydroxypropylcellulose) (HPC).
The mark [9] stands for this setting: dose: 100.0 mg/kg/injection, schedule: Q01DX005 (ip), vehicle: Klucel (hydroxypropylcellulose) (HPC).
Where [10] appears, read: dose: 60.0 mg/kg/injection, schedule: Q01DX005 (ip), vehicle: saline with Tween-80.
Setting [11] is: dose: 120.0 mg/kg/injection, schedule: Q01DX005 (ip), vehicle: saline with Tween-80.
The mark [12] stands for this setting: dose: 240.0 mg/kg/injection, schedule: Q01DX005 (ip), vehicle: saline with Tween-80.
Where [13] appears, read: dose: 50.0 mg/kg/injection, schedule: Q01DX009 (ip), vehicle: saline with Tween-80.
[14] abbreviates: dose: 100.0 mg/kg/injection, schedule: Q01DX009 (ip), vehicle: saline with Tween-80.

As to `CC(=O)Oc1cc(OC(C)=O)c2c(c1)C(=O)c1cc(C)cc(OC(C)=O)c1C2=O`, the T/C under setting [1] is 90 % of control and 96 % of control; the T/C under setting [2] is 90 % of control; the T/C under setting [3] is 90 % of control.
As to `CSc1c(C(=O)NC(C)C)cc(C(C)(C)C)cc1C(=O)NC(C)C`, the T/C under setting [4] is 89 % of control, the T/C under setting [5] is 86 % of control and the T/C under setting [6] was 89 % of control.
For the compound `CC1=C(C#N)C(C)(CCl)C(C#N)=C(C)N1C`, the T/C was 96 % of control (dose: 25.0 mg/kg/injection, schedule: Q01DX009 (ip), vehicle: other); 115 % of control (dose: 50.0 mg/kg/injection, schedule: Q01DX009 (ip), vehicle: other); 103 % of control (dose: 100.0 mg/kg/injection, schedule: Q01DX009 (ip), vehicle: other).
For `CCOC(=O)Nc1nc2ccccc2n1CN1CCN(c2ccccc2)CC1`, the T/C is 92 % of control under setting [7], 95 % of control under setting [8] and 100 % of control under setting [9].
Consider `COC(=O)C1(CC(=O)c2ccc(Cl)cc2)NC(=S)NC(=O)C1C#N` (stereo unspecified), for which the T/C by setting is: under setting [10], 99 % of control; under setting [11], 98 % of control; under setting [12], 106 % of control.
With `CC(C)N(c1cc(=O)nc2ccccn12)C(C)C`, the T/C reads like this: (dose: 60.0 mg/kg/injection, schedule: Q01DX005 (ip), vehicle: saline) 101 % of control; (dose: 120.0 mg/kg/injection, schedule: Q01DX005 (ip), vehicle: saline) 98 % of control; (dose: 240.0 mg/kg/injection, schedule: Q01DX005 (ip), vehicle: saline) 100 % of control.
As to `N#Cc1ccoc1`, the T/C (dose: 12.5 mg/kg/injection, schedule: Q01DX005 (ip), vehicle: Klucel (hydroxypropylcellulose) (HPC)) is 93 % of control; the T/C under setting [7] was 102 % of control; the T/C under setting [8] is 104 % of control.
With `CN(C)C(=O)N1CCc2ccc([N+](=O)[O-])cc21`, the T/C is, setting by setting: under setting [4], 104 % of control; under setting [5], 100 % of control; under setting [6], 98 % of control.
As for `O=C(Nc1ccccc1)Oc1cccc(/C=N/Sc2ccccc2)c1`, under setting [13], the T/C was 98 % of control.
In the case of `Cc1cc(N=Nc2ccc(-c3ccc(N=Nc4ccc(O)c(C(=O)O)c4)cc3)cc2)c(N)c(N=Nc2cc(C(=O)O)ccc2Cl)c1N`, the T/C reads like this: (dose: 50.0 mg/kg/injection, schedule: Q01DX005 (ip), vehicle: saline) 104 % of control; (dose: 100.0 mg/kg/injection, schedule: Q01DX005 (ip), vehicle: saline) 104 % of control; (dose: 200.0 mg/kg/injection, schedule: Q01DX005 (ip), vehicle: saline) 90 % of control.
In the case of `O=c1[nH]cnc2nc3c(nc12)CCc1ccccc1-3`, the T/C is, setting by setting: under setting [10], 100 % of control; under setting [11], 102 % of control; under setting [12], 97 % of control.
Consider `Oc1ccc2ccccc2c1/C=N\Sc1ccccc1`, for which the T/C runs as follows: under setting [13], 98 % of control; under setting [14], 98 % of control.
Consider `CC(=O)Nc1ccc(N=Nc2c(O)c(S(=O)(=O)O)cc3cc(S(=O)(=O)O)ccc23)cc1`, for which the T/C runs as follows: (dose: 50.0 mg/kg/injection, schedule: Q01DX009 (ip), vehicle: saline) 102 % of control; (dose: 100.0 mg/kg/injection, schedule: Q01DX009 (ip), vehicle: saline) 97 % of control; (dose: 200.0 mg/kg/injection, schedule: Q01DX009 (ip), vehicle: saline) 103 % of control.
Turning to `CCN(CC)c1ccc2cc(C(=O)NC(=O)Oc3ccccc3)c(=O)oc2c1`, the T/C was 92 % of control under setting [1], 89 % of control under setting [2] and 87 % of control under setting [3].
In the case of `NP(=O)(OCCC(=O)c1ccccc1)N(CCCl)CCCl` (stereo unspecified), the T/C was 163 % of control (dose: 25.0 mg/kg/injection, schedule: Q04DX002 (ip), vehicle: saline with Tween-80); 223 % of control (dose: 50.0 mg/kg/injection, schedule: Q04DX002 (ip), vehicle: saline with Tween-80); 221 % of control and 92 % of control under setting [1]; 89 % of control under setting [2].
On to `CC(=O)C1CCC2C3CC4OCC5(CCC(O)CC45Br)C3CCC12C` (stereo unspecified), for which the T/C is, setting by setting: under setting [8], 104 % of control; under setting [9], 98 % of control; (dose: 200.0 mg/kg/injection, schedule: Q01DX005 (ip), vehicle: Klucel (hydroxypropylcellulose) (HPC)) 101 % of control.
In the case of `CN(C)c1ccc(C(=NNC(N)=S)c2ccc(N(C)C)cc2)cc1`, the T/C (dose: 12.5 mg/kg/injection, schedule: Q04DX003 (ip), vehicle: Klucel (hydroxypropylcellulose) (HPC)) is 96 % of control; the T/C (dose: 25.0 mg/kg/injection, schedule: Q04DX003 (ip), vehicle: Klucel (hydroxypropylcellulose) (HPC)) is 105 % of control; the T/C (dose: 50.0 mg/kg/injection, schedule: Q04DX003 (ip), vehicle: Klucel (hydroxypropylcellulose) (HPC)) is 99 % of control and 108 % of control.
For the compound `COc1cccc2[nH]c(-c3ccccn3)nc12`, the T/C is 95 % of control under setting [13]; 104 % of control under setting [14]; 95 % of control (dose: 200.0 mg/kg/injection, schedule: Q01DX009 (ip), vehicle: saline with Tween-80).
As for `Cc1cc(=O)n2[nH]c(-c3ccc(Cl)cc3)nc2n1`, the T/C under setting [4] is 106 % of control, the T/C under setting [5] is 103 % of control and the T/C under setting [6] is 100 % of control.
On to `Cc1ccc(NCCN2CCCCC2)c2c(=O)c3ccc(Cl)cc3sc12`, for which the T/C was 94 % of control (dose: 60.0 mg/kg/injection, schedule: Q01DX005 (ip), vehicle: Klucel (hydroxypropylcellulose) (HPC)); 86 % of control (dose: 120.0 mg/kg/injection, schedule: Q01DX005 (ip), vehicle: Klucel (hydroxypropylcellulose) (HPC)); 97 % of control (dose: 240.0 mg/kg/injection, schedule: Q01DX005 (ip), vehicle: Klucel (hydroxypropylcellulose) (HPC)).
Turning to `O=C1c2cccc3c([N+](=O)[O-])ccc(c23)C(=O)N1CCc1ccccn1`, the T/C was 101 % of control (dose: 50.0 mg/kg/injection, schedule: Q01DX005 (ip), vehicle: saline with Tween-80); 111 % of control (dose: 100.0 mg/kg/injection, schedule: Q01DX005 (ip), vehicle: saline with Tween-80); 96 % of control (dose: 200.0 mg/kg/injection, schedule: Q01DX005 (ip), vehicle: saline with Tween-80).
Turning to `Cl[C](Cl)(Cl)[Hg][C](Cl)(Cl)Cl`, the T/C (dose: 1.56 mg/kg/injection, schedule: Q01DX009 (ip), vehicle: saline with Tween-80) is 95 % of control; the T/C (dose: 3.12 mg/kg/injection, schedule: Q01DX009 (ip), vehicle: saline with Tween-80) is 90 % of control and 96 % of control; the T/C (dose: 6.25 mg/kg/injection, schedule: Q01DX009 (ip), vehicle: saline with Tween-80) was 87 % of control.
Take `Nc1cccc(SC(CC(=O)c2ccc(-c3ccccc3)cc2)c2ccco2)c1` (stereo unspecified): the T/C under setting [4] is 97 % of control and the T/C under setting [5] is 101 % of control.
